Results as given in PubChem BioAssay (NCI).
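Five concentrations, 48 hours, 96-well plates. Abbreviation: GI50, concentration required for 50% inhibition of growth. TGI: concentration producing complete growth inhibition.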 Active and inactive are the calls of the source. No stated cut-off is given here; in the data, active means GI50 below about 0.43 µM; inactive means the rest.

Assays:
Experiment in all cases: inhibition of tumour cell growth, NCI panel, 48 h
[1] = system: DLD-1 colon
[2] = system: DMS 273 small cell lung
[3] = system: HOP-18 NSCLC
[4] = system: KM20L2 colon
[5] = system: LXFL 529 NSCLC
[6] = system: M19-MEL melanoma
[7] = system: RXF-631 renal
[8] = system: SNB-78 CNS
[9] = system: MDA-N

Row | Structure (SMILES) | TGI [1] | TGI [2] | TGI [3] | TGI [4] | TGI [5] | TGI [6] | TGI [8] | TGI [9] | other results
1 | O=C(/C=C/c1c(O)ccc2ccccc12)c1ccccc1 | > 100 µM | > 100 µM | > 100 µM | > 100 µM | > 100 µM | > 100 µM | > 100 µM | – | TGI [7]: > 100 µM
2 | O=C1NC2OCC(O)C(O)C2O1 (configuration not stated) | > 100 µM | > 100 µM | > 100 µM | > 100 µM | > 100 µM | > 100 µM | > 100 µM | – | –
3 | CCc1ccc(Nc2ccc([N+](=O)[O-])cc2[N+](=O)[O-])cc1 | > 100 µM | > 100 µM | – | > 100 µM | > 100 µM | > 100 µM | > 100 µM | – | –
4 | CC(C)c1cc2c(O)c(c1)Cc1cc(C(C)C)cc(c1O)Cc1cc(C(C)C)cc(c1O)Cc1cc(C(C)C)cc(c1O)C2 | > 100 µM | > 100 µM | > 100 µM | > 100 µM | – | > 100 µM | > 100 µM | – | –
5 | CNc1nc(N)c(N=O)c(Nc2ccc(Br)cc2)n1 | – | – | – | – | – | – | – | > 100 µM | –
6 | COC(=O)C(=O)C(C(=O)C=C(C)C)C(=O)C(=O)Nc1ccc(C)cc1C (configuration not stated) | > 100 µM | > 100 µM | > 100 µM | > 100 µM | > 100 µM | > 100 µM | > 100 µM | – | –
7 | COc1ccc(CNc2nc3cc(C(F)(F)F)ccc3nc2C)cc1OC | > 100 µM | 48.9 µM | – | > 100 µM | > 100 µM | > 100 µM | 55.8 µM | – | –
8 | CO[C@H]1C=C[C@@]23c4cc5c(cc4CO[C@]2(O)CN(C)[C@H]3C1)OCO5 | – | – | – | – | – | – | – | > 100 µM | –
9 | CCOc1ccc2c(c1)[n+]([O-])c(-c1nc3ccccc3s1)c(N)[n+]2[O-] | > 100 µM | > 100 µM | 92.1 µM | > 100 µM | > 100 µM | > 100 µM | > 100 µM | – | –
10 | O=C1OC(c2ccco2)=N/C1=C\c1cccc([N+](=O)[O-])c1 | – | – | – | – | – | – | – | > 100 µM | –
11 | CSc1nc2cc(S(=O)(=O)N3CCCCC3)ccc2s1 | – | – | – | – | – | – | – | > 100 µM | –
12 | COC1=CC2(C=CC1=O)c1cc(OC)c(OC)cc1CCN2C(=O)c1ccccc1 (configuration not stated) | > 100 µM | > 100 µM | > 100 µM | – | > 100 µM | – | > 100 µM | – | –
13 | CC(C)c1ccc(C(c2ccc(OCC(=O)O)cc2)c2ccc(C(C)C)cc(=O)c2O)c(O)c(=O)c1 | 21.3 µM | 11.2 µM | 55.6 µM | > 100 µM | > 100 µM | 69.9 µM | 56.7 µM | – | TGI [7]: 31.3 µM
14 | O=c1[nH]c(=O)n(C2OC(CO)C(O)C(O)C2O)cc1F (configuration not stated) | > 100 µM | – | > 100 µM | > 100 µM | > 100 µM | > 100 µM | > 100 µM | > 100 µM | –
15 | Cc1nc(-c2ccccc2)c(-c2ccccc2)s1 | – | – | – | – | – | – | – | 35.1 µM | –
16 | N#CCC(=O)NC1C2CC3CC(C2)CC1C3 (configuration not stated) | 48.9 µM | 48.2 µM | – | 33.6 µM | > 100 µM | > 100 µM | 43 µM | – | –
17 | COC(C(O)c1ccc2c(c1)OCO2)P(=O)(c1ccccc1)c1ccccc1 (configuration not stated) | > 100 µM | > 100 µM | – | – | – | > 100 µM | > 100 µM | – | –
18 | N.N.O=C([O-])P(=O)([O-])[O-].[Na+].[Pt+4] | > 100 µM | > 100 µM | > 100 µM | > 100 µM | > 100 µM | – | > 100 µM | – | GI50 [1]: > 100 µM; GI50 [2]: > 100 µM; GI50 [3]: > 100 µM; GI50 [4]: > 100 µM; GI50 [5]: > 100 µM; GI50 [8]: > 100 µM
19 | OC/C=C(\I)CCCOCOCc1ccccc1 | > 100 µM | 44.4 µM | – | > 100 µM | > 100 µM | > 100 µM | > 100 µM | – | –
20 | C/C=C1/C(=C/c2[nH]c(/C=c3\[nH]/c(=C/C4=NC(=O)C(CC)=C4C)c(C)c3CCC(=O)O)c(CCC(=O)O)c2C)NC(=O)C1C (configuration not stated) | > 150 µg/mL | > 150 µg/mL | – | – | – | > 150 µg/mL | > 150 µg/mL | – | GI50 [1]: > 150 µg/mL; GI50 [2]: > 150 µg/mL; outcome [4]: inactive; outcome [5]: inactive; GI50 [6]: > 150 µg/mL; outcome [7]: inactive; GI50 [8]: > 150 µg/mL
21 | CS(=O)(=O)c1cc(=O)c2ccccc2s1 | 4.21 µM | 20.7 µM | – | 28.2 µM | 3.02 µM | 18.3 µM | 14 µM | 16.2 µM | TGI [7]: 21.3 µM
22 | COc1cc2c(c(OC)c1)C1(CC(CC#N)C2)SCCS1 (configuration not stated) | > 100 µM | > 100 µM | > 100 µM | > 100 µM | > 100 µM | > 100 µM | > 100 µM | – | TGI [7]: > 100 µM

Row | Structure (SMILES) | TGI [1] | TGI [2] | TGI [3] | TGI [4] | TGI [5] | TGI [6] | TGI [8] | TGI [9] | other results
23 | CCCS(=O)(=O)/C(=C(\c1ccc(Br)cc1)S(=O)(=O)CCC)c1ccc(Br)cc1 | > 10 µM | > 10 µM | > 10 µM | > 10 µM | > 10 µM | > 10 µM | > 10 µM | – | –
24 | Cc1[nH]c2ccccc2c1C1Cc2ccccc2N1C(=O)/C(Cl)=C/c1ccccc1 (configuration not stated) | > 100 µM | > 100 µM | > 100 µM | > 100 µM | > 100 µM | > 100 µM | > 100 µM | – | TGI [7]: > 100 µM
25 | N#C/C(=C\c1cc2ccccc2c2ccccc12)c1ccccc1 | > 90.2 µM | 8.73 µM | > 61.2 µM | 13.8 µM | > 100 µM | > 100 µM | 34.2 µM | – | –
26 | COc1cccc(N2C(=O)[C@H]3CC(C)c4c([nH]c5ccccc45)[C@H]3C2=O)c1 (some centres not stated) | > 100 µM | > 100 µM | – | > 100 µM | > 100 µM | > 100 µM | > 100 µM | – | –
27 | COC(=O)c1cc(C)c(C)c2c1NC(=O)CNC2=O | > 100 µM | > 100 µM | – | > 100 µM | > 100 µM | > 100 µM | > 100 µM | – | –
28 | Fc1ccc(C2SCc3nc4ccccc4n32)cc1Cl (configuration not stated) | > 100 µM | – | – | > 100 µM | 57.8 µM | 37.1 µM | > 100 µM | – | TGI [7]: > 100 µM
29 | CCCCCCC(=O)C/C(=N/NC(N)=S)C(=O)NC1C2CC3CC(C2)CC1C3 (configuration not stated) | > 100 µM | – | – | > 100 µM | > 100 µM | > 100 µM | > 100 µM | – | –
30 | Cc1ccc2c(c1)CN(C(=O)CCC(=O)OCc1ccccc1)c1ccc(C)cc1CN2C(=O)CCC(=O)OCc1ccccc1 | > 100 µM | > 100 µM | > 100 µM | > 100 µM | > 100 µM | > 100 µM | > 100 µM | > 100 µM | –
31 | Cc1ccc(-c2cc(=O)c3cc(C)c(C)c(C(=O)O)c3o2)cc1C | > 100 µM | > 100 µM | > 100 µM | > 100 µM | > 100 µM | > 100 µM | > 100 µM | – | TGI [7]: > 100 µM
32 | Clc1ccc(-c2c(C3=NCCCN3)nnn2-c2ccc(Cl)cc2)cc1 | > 100 µM | > 100 µM | > 100 µM | > 100 µM | > 83.3 µM | – | > 100 µM | 39.3 µM | –
33 | COc1cc2c(c(OC)c1OC)-c1c(cc3c(c1OC)OCO3)C1OC2C(C)C1C (configuration not stated) (tested in a mixture with another compound) | – | – | – | – | – | – | – | > 100 µM | –
34 | Cc1nc2ccccc2c(=O)n1-c1ccccc1F | > 100 µM | > 100 µM | > 100 µM | > 100 µM | > 100 µM | > 100 µM | > 100 µM | – | –
35 | CC(C)(C)c1ccc(O)c(CN(Cc2cc(C(C)(C)C)ccc2O)c2ccccc2)c1 | – | – | – | – | – | – | – | 30.4 µM | –
36 | Cn1cnc([N+](=O)[O-])c1[Se]c1nc(N)nc2c1ncn2C1OC(CO)C(O)C1O (configuration not stated) | – | – | – | – | – | – | – | > 100 µM | –
37 | CCCCOC(=O)NC(=O)c1cn(C2CCCCC2)c(=O)[nH]c1=O | > 100 µM | > 100 µM | 49.4 µM | > 100 µM | 93 µM | > 100 µM | > 100 µM | – | –
38 | CCCCN1CSC(=S)N(Cc2ccccc2)C1 | – | – | – | – | – | – | – | > 100 µM | –
39 | C/C(=C1/CCC/C(=C(/C)c2ccccc2)C1=O)c1ccccc1 | > 100 µM | > 100 µM | > 100 µM | > 100 µM | > 100 µM | 58.3 µM | > 100 µM | – | –
40 | CC(C)N1CN(C(C(=O)N[C@@H]2C(=O)N3C2SC(C)(C)C3C(=O)O)c2ccccc2)CSC1=S (some centres not stated) | > 100 µM | > 100 µM | > 100 µM | > 100 µM | > 100 µM | > 100 µM | > 100 µM | – | –
41 | CN1C(=O)c2ccccc2NC(=O)C12O[C@@H]2c1cccc(O)c1 (some centres not stated) | – | – | – | – | – | – | – | > 100 µM | –
42 | COc1ccc(/C=C\c2cc(OC)c(OC)c(OC)c2)cc1OC(=O)NCCN(C)C | 15.9 µM | 0.000109 µM | > 100 µM | 1.17 µM | – | 20.1 µM | – | – | GI50 [7]: 0.258 µM
43 | C/C=C(\C)CC/C=C/CO[Si](C)(C)C(C)(C)C | – | – | – | – | – | – | – | > 100 µM | –
44 | O=C(Nc1ccc(Cl)cc1Cl)C(=O)C(C(=O)c1ccncc1)C1OC(=O)c2ccccc21 (configuration not stated) | > 100 µM | – | > 100 µM | > 100 µM | > 100 µM | > 100 µM | > 100 µM | – | TGI [7]: > 100 µM
